# Measured values from patent publication US5935824A, “Protein expression system” (Technologene, Inc., priority 1996, dated 1999).
# Residues, ends and D or L forms follow the SMILES beside them. *: point of attachment. Cbz = O=C(OCc1ccccc1)*
# Molecular target: T1, carboxypeptidase Y (CPD-Y) immobilized to Acti-Disk (Saccharomyces cerevisiae, UniProt P00729)
# T1 construct: purchased Sigma
# T1 sequence (P00729 112-532): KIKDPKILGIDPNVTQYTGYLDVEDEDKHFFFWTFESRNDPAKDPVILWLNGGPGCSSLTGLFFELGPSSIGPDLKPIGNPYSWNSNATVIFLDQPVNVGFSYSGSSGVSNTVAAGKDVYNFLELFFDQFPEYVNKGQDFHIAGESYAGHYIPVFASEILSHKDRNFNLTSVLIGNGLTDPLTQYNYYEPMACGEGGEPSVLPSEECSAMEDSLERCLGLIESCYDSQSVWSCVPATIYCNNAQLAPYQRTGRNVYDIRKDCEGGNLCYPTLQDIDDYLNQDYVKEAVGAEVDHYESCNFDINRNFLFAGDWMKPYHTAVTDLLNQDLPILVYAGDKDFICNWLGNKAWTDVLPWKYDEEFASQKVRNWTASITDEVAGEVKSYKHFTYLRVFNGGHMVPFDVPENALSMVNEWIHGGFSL
# Assay: Flow digestion of N-CBZ-peptides through CPD-Y Acti Disk, ninhydrin assays
# Type: biochemical, yeast
# Description: The reported Km values for CPD-Y have been generated using extremely low enzyme concentration compared to substrate concentration. The value for Km represents the concentration of substrate that will produce 1/2 the maximum velocity for the initial reaction rates. During the testing of the immobilized CPD-Y enzyme disks with various dipeptide substrates, the maximum flow rate that can be achieved without any substantial increase in the pressure of the solution, is 4 ml/min. At this flow rate, the substrate remains within the immobilized enzyme matrix for 1.74 seconds. This value is determined by dividing the internal porous volume of the matrix to which the enzyme is immobilized (115 μL/4000 μL, min^-1). Due to the high concentration of enzyme (565 μM) within the limited volume of the immobilization matrix (115 μl) a very high percentage of the substrate was hydrolyzed even at these short incubation times which prevents the accurate determination of actual Km values for the individual substrates.
# Standard ninhydrin assay: Hydrolysis of the non-proline containing N-CBZ-dipeptides was determined by assaying the amount of free amino acid released by a colorometric ninhydrin reaction at a pH greater than 5.2. One gram of ninhydrin was dissolved in 50 ml ethylene glycol monomethyl ether containing 0.03% ascorbic acid. This ninhydrin solution was made fresh daily. A 0.4 M Citrate buffer, pH 5.2 was made by adjusting the pH of ACS grade citric acid with NaOH. Two hundred microliter samples at pH greater than 5.2 were mixed with an equal volume of ninhydrin reagent and incubated at 100° C. for 20 minutes. When 200 μl samples below pH 5.2 were to be assayed, 100 μl of 0.4 M Citrate buffer was included prior to heating the sample to 100° C. Samples were then cooled to room temperature and 600 μl of 60% ethanol was added as the diluent and the absorbance was read at 570 nm on a Beckman DU 7000 spectrophotometer.
# Proline ninhydrin assay: Hydrolysis of proline-containing N-CBZ-dipeptides were measured with a modified version of the assay described by Magne and Larher [Anal. Biochem., 200:115 (1982)]. Briefly a ninhydrin reagent containing 2% ninhydrin prepared in glacial acetic acid:water 60:40 (v/v) was prepared. Five hundred microliter samples were combined with 500 μl glacial acetic acid and 500 μl ninhydrin reagent was added. The sample was subsequently boiled for one hour. One milliliter of analytical grade toluene was then used to extract the chromophore and the absorbance was read at 520 nm.
# Concentrations of N-CBZ-Ala-Pro ranging from 4 mM to 100 μM (100 mM citrate, 100 mM NaCl, pH 5.75) were passed through a CPD-Y Acti Disk at a flow rate of 2.0 ml/min. Reaction rates were determined by assaying the appropriate dilutions of the various substrates using the above described proline ninhydrin assay specific of free proline to obtain […] readings below 1.5.
# N-CBZ-Ala-Pro (dissolved in 100 mM citrate, 100 mM NaCl, pH 5.75) at a concentration of 200 μM, was passed through the same CPD-Y Acti Disk at flow rates ranging from 2 ml/min to 175 μl/ min. Five milliliters of each specific flow rate were collected and assayed by the proline ninhydrin assay in order to determine the relative percentage of substrate that was hydrolyzed using the various flow rates. In order to characterize the amount of substrate hydrolyzed per unit of time, flow rates are converted to amount of time that the substrate is within the immobilized enzyme matrix (Acti Disk). The amount of time the substrate is within the immobilized enzyme matrix at a given flow rate is shown below in Table 6.
# The first order rate constant determined for the N-CBZ-Ala-Pro substrate is applicable only as a reference for comparison to other N-CBZ-dipeptide first order rate constants. N-CBZ-Phe-Ala is the substrate used by Sigma to characterize the activity of CPD-Y at 100 units per milligram, 1 unit can hydrolyze 1 μmol of N-CBZ-Phe-Ala per minute. […]
# [1] = flow rate 2 ml/min, 3.45 seconds, pH 5.75, ~25° C.
# [2] = 200 μM substrate, 2 × 2 ml/min (two passes)
# [3] = 200 μM substrate, flow rate 0.25 ml/min, one pass
# [4] = 200 μM substrate, flow rate 1.0 ml/min, one pass
# [5] = 200 μM substrate, flow rate 2.0 ml/min, one pass
# [6] = second flow at 2.0 ml/min, 3.45 seconds
# [7] = 200 μM substrate, varied flow rates
compound,measurement,setting,value
CC(C)C[C@H](NC(=O)[C@H](C)NC(=O)OCc1ccccc1)C(=O)O [N-CBZ-Ala-Leu] (Cbz-Ala-Leu-OH),K^1 min^-1 (first order reaction constant),[1],27.52 min⁻¹
same,Log S/S-P,[1],0.688
O=C(O)CC[C@H](NC(=O)OCc1ccccc1)C(=O)N[C@@H](Cc1ccc(O)cc1)C(=O)O [N-CBZ-Glu-Tyr] (Cbz-Glu-Tyr-OH),K^1 min^-1 (first order reaction constant),[1],24.24 min⁻¹
same,Log S/S-P,[1],0.606
C[C@H](NC(=O)[C@H](Cc1ccccc1)NC(=O)OCc1ccccc1)C(=O)O [N-CBZ-Phe-Ala],Concentration of released alanine,"20 mM substrate, flow rate 4 ml/minute",10.49 mM
same,Rate of digestion,"20 mM substrate, flow rate 4 ml/minute, pH 5.75",41.96 µmol/min
O=C(O)[C@H](Cc1ccccc1)NC(=O)[C@@H]1CCCN1C(=O)OCc1ccccc1 [N-CBZ-Pro-Phe] (Cbz-Pro-Phe-OH),K^1 min^-1 (first order reaction constant),[1],1.480 min⁻¹
same,Log S/S-P,[1],0.037
CC(C)C[C@H](NC(=O)[C@@H]1CCCN1C(=O)CNC(=O)OCc1ccccc1)C(=O)N[C@@H](C)C(=O)N1CCC[C@H]1C(=O)O [N-CBZ-Gly-Pro-Leu-Ala-Pro] (Cbz-GPLAP-OH),"Concentration of amino acids released, standard ninhydrin assay",[2],353.4 µM
same,"Concentration of proline released, proline ninhydrin assay",[2],195.6 µM
same,"Concentration of amino acids released, standard ninhydrin assay",[3],384.0 µM
same,"Concentration of proline released, proline ninhydrin assay",[3],212.5 µM
same,"Concentration of amino acids released, standard ninhydrin assay",[4],315.9 µM
same,"Concentration of proline released, proline ninhydrin assay",[4],196.5 µM
same,"Concentration of amino acids released, standard ninhydrin assay",[5],265.7 µM
same,"Concentration of proline released, proline ninhydrin assay",[5],197.0 µM
same,Kinetic constant k for the remaining Pro-Leu bond,[6],18.39
same,Product released in second flow,[6],87.7 µM
C[C@H](NC(=O)OCc1ccccc1)C(=O)N1CCC[C@H]1C(=O)O [N-CBZ-Ala-Pro] (Cbz-Ala-Pro-OH),First-order rate constant,"200 μM substrate, converted from seconds^-1",3.84 min⁻¹
same,Log S/S-P,"200 μM substrate, flow rate 175 μl/min, 36.4 seconds",1.541
same,Log S/S-P,"200 μM substrate, flow rate 350 μl/min, 19.7 seconds",1.022
same,Log S/S-P,"200 μM substrate, flow rate 1000 μl/min, 6.90 seconds",.672
same,Log S/S-P,"200 μM substrate, flow rate 2000 ml/min (so in the source), 3.45 seconds",.560
same,First-order rate constant,[7],4.14 min⁻¹
same,Slope of log [S]/[S]-[P] over seconds,[7],0.030
same,Log S/S-P,"500 μM substrate, 1 pass at 2000 μl/min, 3.45 sec",.614
same,Log S/S-P,"500 μM substrate, 2 passes at 2000 μl/min, 6.90 sec",1.236
same,Log S/S-P,"500 μM substrate, 3 passes at 2000 μl/min, 10.35 sec",1.870
same,Slope of log [S]/[S]-[P] versus seconds,"500 μM substrate, repeated passes at 2000 μl/min",0.199
same,K^1 min^-1 (first order reaction constant),[1],22.40 min⁻¹
same,Log S/S-P,[1],0.560
same,Velocity,"substrate concentration 100 μM, flow rate 2.0 ml/min, pH 5.75",170 nM/min
same,Velocity,"substrate concentration 200 μM, flow rate 2.0 ml/min, pH 5.75",344 nM/min
same,Velocity,"substrate concentration 300 μM, flow rate 2.0 ml/min, pH 5.75",503 nM/min
same,Velocity,"substrate concentration 500 μM, flow rate 2.0 ml/min, pH 5.75",846 nM/min
same,Velocity,"substrate concentration 1000 μM, flow rate 2.0 ml/min, pH 5.75",1684 nM/min
O=C(NCC(=O)N1CCC[C@H]1C(=O)O)OCc1ccccc1 [N-CBZ-Gly-Pro] (Cbz-Gly-Pro-OH),K^1 min^-1 (first order reaction constant),[1],0.160 min⁻¹
same,Log S/S-P,[1],0.004
